Columns and labels:
[1] = ultrafiltration, 5 control animals; cited from earlier work
PDE4 = assay: PET compartmental modeling of brain and plasma data
[2] = transient equilibrium, range over scans

concentration of free radioligand calculated with Equation 2 (PDE4; baseline scans): 0.08 to 0.17 nM
concentration of free radioligand calculated with Equation 2 (PDE4; partially blocked scans): 0.29 to 3.00 nM
calculated concentration of free ligand in brain (PDE4; [2]): 0.07 to 5.68 nM
calculated concentration of specifically bound ligand in brain (PDE4; [2]): 3.63 to 88.3 nM
Compound: COc1ccc([C@@H]2CNC(=O)C2)cc1OC1CCCC1 [(R)-rolipram]
plasma-free fraction (fP) [1]: 30.5% ± 3.1
